Results published in article PMC11447812, “How ATP and dATP Act as Molecular Switches to Regulate Enzymatic Activity in the Prototypical Bacterial Class Ia Ribonucleotide Reductase” (Biochemistry, 2024).

Experiments:
[1] = biological target: T1, E. coli class Ia RNR α subunit (W28A-α2) (Escherichia coli, UniProt P00452, W28A); test: […] Å crystal structure with ATP; type: binding
T1 construct: gene nrdA; His6-W28A-α2
T1 sequence (P00452 1-761 W28A): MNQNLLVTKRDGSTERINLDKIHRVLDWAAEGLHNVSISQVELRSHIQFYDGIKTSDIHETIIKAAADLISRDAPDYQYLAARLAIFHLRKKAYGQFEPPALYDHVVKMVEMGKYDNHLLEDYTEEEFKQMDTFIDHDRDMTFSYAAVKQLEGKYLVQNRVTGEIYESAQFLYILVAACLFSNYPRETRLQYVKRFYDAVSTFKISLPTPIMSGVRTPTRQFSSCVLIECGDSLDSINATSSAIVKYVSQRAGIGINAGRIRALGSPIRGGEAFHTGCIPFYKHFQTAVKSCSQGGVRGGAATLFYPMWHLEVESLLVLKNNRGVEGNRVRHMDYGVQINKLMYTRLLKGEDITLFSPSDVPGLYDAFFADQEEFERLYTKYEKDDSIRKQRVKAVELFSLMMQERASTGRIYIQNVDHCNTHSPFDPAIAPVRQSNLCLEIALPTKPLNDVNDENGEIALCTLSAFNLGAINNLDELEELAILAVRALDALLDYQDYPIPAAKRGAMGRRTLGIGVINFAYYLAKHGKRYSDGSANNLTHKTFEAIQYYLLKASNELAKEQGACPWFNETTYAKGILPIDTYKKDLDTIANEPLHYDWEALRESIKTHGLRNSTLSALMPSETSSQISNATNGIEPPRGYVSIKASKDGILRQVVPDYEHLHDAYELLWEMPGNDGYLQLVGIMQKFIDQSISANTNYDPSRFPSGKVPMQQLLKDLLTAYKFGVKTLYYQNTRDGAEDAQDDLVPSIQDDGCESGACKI
T1 sequence (P69924 2-376 partner): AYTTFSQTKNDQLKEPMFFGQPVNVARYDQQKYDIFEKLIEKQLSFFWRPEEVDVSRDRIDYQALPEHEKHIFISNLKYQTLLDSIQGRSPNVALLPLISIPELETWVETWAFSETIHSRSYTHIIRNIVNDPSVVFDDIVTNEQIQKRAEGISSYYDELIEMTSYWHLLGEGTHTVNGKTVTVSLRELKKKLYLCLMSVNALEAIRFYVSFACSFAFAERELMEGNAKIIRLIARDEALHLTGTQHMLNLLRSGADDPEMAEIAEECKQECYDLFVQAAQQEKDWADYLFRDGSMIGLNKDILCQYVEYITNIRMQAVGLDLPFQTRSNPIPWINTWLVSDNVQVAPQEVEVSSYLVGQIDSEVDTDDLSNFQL

[2] = biological target: T1, E. coli class Ia RNR α subunit (W28A-α2); test: […] Å crystal structure W28A-α2-dATP/GTP; inhibition in activity assay; type: binding

Row | Structure (SMILES) | 2.6 Å crystal structure with ATP [1] | 3.55 Å crystal structure W28A-α2-dATP/GTP; inhibition in activity assay [2]
1 | Nc1ccn([C@@H]2O[C@H](COP(=O)(O)OP(=O)(O)O)[C@@H](O)[C@H]2O)c(=O)n1 [CDP] | provides a higher-resolution picture of the active site bound to the CDP/ATP substrate/effector pair | –
2 | Nc1ncnc2c1ncn2[C@H]1C[C@H](O)[C@@H](COP(=O)(O)OP(=O)(O)OP(=O)(O)O)O1 [dATP] | – | dATP was placed in the specificity site based on omit maps.
